Test results taken from patent publication US20100292200A1, “Methods for Modulating Apoptosis in Platelets” (The Walter and Eliza Hall Institute of Medical Research, priority 2006, published 2010).

What was measured:
[1] = test system: primary MEFs from wild type, Bcl-x^Plt20/Plt20 or Bcl-x^Plt16/Plt16 mice; test: Viability of primary MEFs (PI exclusion) after cell death induction; type: cell-based, mouse
From the text: FIG. 3 provides a representation of data showing that the Bcl-x^Plt20 and Bcl-x^Plt16 mutations destabilize the Bcl-xL protein (A) Location of the Plt20 and Plt16 mutations on Bcl-xL. The two mutations (in blue) are mapped on the 3-dimensional structure of mouse Bcl-xL (light gray) in complex with a Bim BH3 peptide (red) (1PQ1) (Liu et al. Immunity, 19:341-352, 2003). Y15 (Plt20) is partially solvent exposed, while I182 (Plt16) is completely buried, neither contributing to the BH3 binding groove of Bcl-xL. The structural depiction was prepared using PyMOL (DeLano, W. L. 2002 The PyMOL Molecular Graphics System; http://www.pymol.org). (B) The mutant proteins encoded by the Plt20 and Plt16 alleles of Bcl-x can still bind Bax and Bak. […] Data shown is representative of at least 2 cell lines of each genotype analyzed. […] The viability (determined by PI exclusion) of representative primary MEFs derived from wild type, Bcl-x^Plt20/Plt20 or Bcl-x^Plt16/Plt16 mice after exposure to 50 μg/mL cycloheximide for 0-30 h. […]
FIG. 8 is a graphical representation of data showing the sensitivity of cell lines derived from Bcl-x mutant mice to apoptosis. […] Viability was determined by PI uptake; data represent means±SD of representative cell lines. \-<1% viability. […]

[2] = test system: mouse platelets; test: Ex vivo platelet assays, mouse platelets in culture (platelet counts, caspase immunoblotting); type: cell-based; details: qVD.OPh 50 μM with ABT-737 1 μM
Description: (A) Expression of Bcl-2 family proteins in platelets. […] (C) ABT-737 triggers caspase activation in platelets. […] (F) Absence of Bak protects platelets against ABT-737.
Cell death was induced with ABT-737 (up to 5 μM, Abbott Laboratories (Oltersdorf et al., 2005 (supra)), etoposide (up to 100 μM, Pharmacia) or staurosporine (10 μM, Sigma); 50 μM qVD.OPh (Enzyme Systems) was also added in some experiments. Cell viability was determined by flow cytometry for cells that exclude propidium iodide or manual counting using a hemacytometer.
Other antibodies for immunoblotting were mouse monoclonal anti-Bcl-xL (2H12; BD), anti-Bcl-2 (clone 7; BD), anti-human Bcl-2 (Bcl-2-100), anti-actin (AC40; Sigma), anti-Bax (2D2 and 5B7; Sigma), anti-Mcl-1 (clone 22: BD); rat monoclonal anti-Mcl-1 (14C11; D Huang, unpublished), rabbit polyclonal anti-Bak (B5897: Sigma), anti-Mcl-1 (Rockland), anti-caspase-3 (585; gift of Y. Lazebnik), anti-cleaved p17 fragment of caspase-3 (AB3623; Chemicon), anti-gelsolin (gift of D Kwiatkowski) (Kothakota et al., Science, 278:294-298, 1997); hamster monoclonal anti-mouse Bcl-2 (3F11; BD). Secondary antibodies included HRP-conjugated anti-rat or anti-hamster IgG (SouthernBiotech), anti-mouse or anti-rabbit IgG (Chemicon), and anti-mouse IgG Fcγ chain specific antibody (Jackson ImmunoResearch). The proteins were detected using Enhanced ChemiLuminescence (ECL; GE Healthcare).
Platelets were counted manually in triplicate using a hemacytometer.

[3] = test system: Mcl-1 null MEF cells; test: Assay of Mcl-1 null MEF cells (rescue from ABT-737-induced killing, CellTitre-Blue viability); type: cell-based, mouse; details: positive control, 25 μM final; ABT-737 20 nM final
Description: In summary, cells are split on day one in order to have them at a confluency of 60-80% on day two. On day two, the cells are seeded out into assay plates at a density that will ensure they are not confluent by day four of the assay. The assay plates are incubated at room temperature for 20-60 minutes before being transferred to 37° C. so that edge effects are minimized. For the same reason, assay plates are never stacked on top of each other in the incubator. On day three the cells are treated first with either Q-VD or with WEHI library compound. The cells are incubated for a 2 hour period in the presence of the library compounds and are then treated with ABT-737. […] After four hours the level of resorufin is measured.
The protocol for day one was repeated up to the point where the cells were pelleted and the supernatant aspirated off. […] The cells were vortexed and then counted using a haemocytometer. The dilution necessary to achieve a density of 2×10^4 cells ml^−1 (1000 cells per well per 50 μl media) in the required volume was calculated and the dilution performed in 1% FCS FMA. […]
CellTitre-Blue™ was warmed to 37° C. and 10 μl was then added to each well of the assay plates using the Multidrop. The plates were returned to 37° C. for 4 hours before being loaded into the EnVision plate reader. […]

Question: How did the “viability of Bcl-x^Plt20 or Bcl-x^Plt16 MEFs after protein synthesis inhibition” value ([1]; 50 μg/mL cycloheximide for 0-30 h, PI exclusion) turn out when `C[C@@H]1C[C@@H]([C@H](O)CC2CC(=O)NC(=O)C2)C(=O)[C@@H](C)C1` [cycloheximide] was run?
Answer: Its value is “susceptible”.

Question: `CC(C)[C@H](NC(=O)c1ccc2ccccc2n1)C(=O)N[C@@H](CC(=O)O)C(=O)COc1c(F)cccc1F` [qVD.OPh] was tested. Which “effect of qVD.OPh on ABT-737-induced caspase-3 activation and gelsolin cleavage” value [2] did it give?
Answer: Its value is “partially blocked”.

Question: And the “effect of qVD.OPh on the cytotoxic effect of ABT-737 on mouse platelets in culture” value ([2]; counted after 1 h)?
Answer: The value was “partially ameliorated”.

Question: And the “rescue of Mcl-1^(-/-) cells from ABT-737-induced apoptosis” value [3]?
Answer: The value was “can be rescued”.

Question: How did the “sensitivity of wild-type, Bcl-x^Plt20/Plt20 or Bcl-x^Plt16/Plt16 MEFs to staurosporine” value ([1]; staurosporine 10 μM, PI uptake) turn out when `CN[C@@H]1C[C@H]2O[C@@](C)([C@@H]1OC)n1c3ccccc3c3c4c(c5c6ccccc6n2c5c31)C(=O)NC4` [staurosporine] was run?
Answer: The value was “equally sensitive”.
